This note sets out measurements from patent US6881584B1, “Infrared thermography” (SmithKline Beecham Corporation, priority 1998, dated 2005).

Molecules are shown by their SMILES.

The assay has as its system liver. In words: Liver thermogenesis in AKR mice with IR transparent adhesive. Format: in vivo. As to conditions: AKR mice on high-fat diet, 75 mg/kg i.g., 5 hours. The procedure:
FIG. 31. Liver thermogenesis in AKR mice 5 hours after treatment with the nucleoside reverse transcriptase inhibitor (NRTI) D4T detected by IR thermography. Male AKR mice were housed 5 per cage and maintained on high fat diet (58% kCals as fat) and water ad libitum. Mice were dosed at 0, 1, 10, 75, and 100 mg/kg D4T in water vehicle (0.5 mL i.g.; n=10 per dose) and anesthetized using isoflurane as described above 5 hours after treatment. The abdomens of the anesthetized mice were surgically opened to expose the liver and Bioclusive adhesive was placed over the entire exposed area. IR images of the liver region were acquired and analyzed as detailed in FIG. 28. […] Quantification of the IR signal depicted in the image is shown in the bottom left panel. Analysis of the dose response to D4T is shown in the panel to the right. Data shown are means±SEM for n=10 animals per group.
AKR mice fed a high-fat diet were treated with 75 mg/kg D4T, and their abdomens were surgically opened and covered with Bioclusive adhesive 5 hour later. […] This decrease is quantitated in the lower left panel of FIG. 31. Moreover, the dose-dependent effect of D4T on decreased liver temperature determined using IR thermography (FIG. 31, right panel) correlated well with the effect of D4T treatment on serum non-esterified fatty acid levels (r=0.91, data not shown).

For `Cc1cn([C@H]2C=C[C@@H](CO)O2)c(=O)[nH]c1=O` [D4T], the liver temperature entry is reported as “decrease in temperature”.
